pIC50: −log10 of the molar value.
tested on: IFNα-Induced STAT Phosphorylation; assay: IFNα-Induced STAT Phosphorylation in Human Whole Blood; format: cell-based; conditions: 1 h compound incubation, 1000 U/mL recombinant human IFNα A/D for 15 min, pSTAT5 in CD3 positive population, read-out: LE Human WB IFNα-Induced Stat Phosph. (IC50)
Source text: IFNα-Induced STAT Phosphorylation in Human Whole Blood
The amount of pSTAT5 expression was quantitated by median fluorescence intensity after gating on the CD3 positive population.

pIC50	SMILES
6.57	[2H]C([2H])([2H])NC(=O)c1nnc(Nc2ccccn2)cc1Nc1nccc(-c2ncn(C)n2)c1OC [Example 28]

same assay, conditions: Homo sapiens, 1 h compound incubation, 1000 U/mL recombinant human IFNα A/D for 15 min, pSTAT5 in CD3 positive population, read-out: LE Human WB IFNα-Induced Stat Phosph. (IC50)

SMILES	pIC50
[2H]C([2H])([2H])NC(=O)c1nnc(Nc2cc(C#N)ccn2)cc1Nc1nccc(-c2ncn(C)n2)c1OC [Example 13, 6-[(4-cyanopyridin-2-yl)amino]-4-{[3-methoxy-4-(1-methyl-1H-1,2,4-triazol-3-yl)pyridin-2-yl]amino}-N—(^2H3)methylpyridazine-3-carboxamide]	< 5.00
[2H]C([2H])([2H])NC(=O)c1nnc(Nc2ccncc2)cc1Nc1nccc(-c2ncn(C)n2)c1OC [Example 35, 4-{[3-methoxy-4-(1-methyl-1H-1,2,4-triazol-3-yl)pyridin-2-yl]amino}-N—(^2H3)methyl-6-[(pyridin-4-yl)amino]pyridazine-3-carboxamide]	6.70
[2H]C([2H])([2H])NC(=O)c1nnc(NC(=O)OC)cc1Nc1nccc(-c2noc(CN3CCOCC3)n2)c1OC [Example 53, methyl N-{5-[(3-methoxy-4-{5-[(morpholin-4-yl)methyl]-1,2,4-oxadiazol-3-yl}pyridin-2-yl)amino]-6-[(^2H3)methylcarbamoyl]pyridazin-3-yl}carbamate]	6.30
[2H]C([2H])([2H])NC(=O)c1nnc(Nc2cc(F)c(F)cn2)cc1Nc1nccc(-c2ncn(C)n2)c1OC [Example 39, 6-[(4,5-difluoropyridin-2-yl)amino]-4-{[3-methoxy-4-(1-methyl-1H-1,2,4-triazol-3-yl)pyridin-2-yl]amino}-N—(^2H3)methylpyridazine-3-carboxamide]	6.66
[2H]C([2H])([2H])NC(=O)c1nnc(NC(=O)C2CC2)cc1Nc1nccc(-c2cnc(C(=O)N(C)CC)cn2)c1OC [Example 88, 6-(Cyclopropanecarboxamido)-4-((4-(5-(ethyl(methyl)carbamoyl)pyrazin-2-yl)-3-methoxypyridin-2-yl)amino)-N-(methyl-d3)pyridazine-3-carboxamide]	6.89
[2H]C([2H])([2H])NC(=O)c1nnc(NC(=O)OC)cc1Nc1nccc(-c2noc(C)n2)c1OC [Example 56, methyl N-(5-{[3-methoxy-4-(5-methyl-1,2,4-oxadiazol-3-yl)pyridin-2-yl]amino}-6-[(^2H3)methylcarbamoyl]pyridazin-3-yl)carbamate]	5.87
[2H]C([2H])([2H])NC(=O)c1nnc(NC(=O)C2CC2)cc1Nc1nccc(-c2noc(CC#N)n2)c1OC [Example 60, 4-({4-[5-(cyanomethyl)-1,2,4-oxadiazol-3-yl]-3-methoxypyridin-2-yl}amino)-6-cyclopropaneamido-N—(^2H3)methylpyridazine-3-carboxamide]	6.89
[2H]C([2H])([2H])NC(=O)c1nnc(NC(=O)CC)cc1Nc1nccc(-c2noc(C)n2)c1OC [Example 81, 4-{[3-methoxy-4-(5-methyl-1,2,4-oxadiazol-3-yl)pyridin-2-yl]amino}-N—(^2H3)methyl-6-propanamidopyridazine-3-carboxamide]	6.66
[2H]C([2H])([2H])NC(=O)c1nnc(NC(=O)CC)cc1Nc1nccc(-c2noc(CN3CCOCC3)n2)c1OC [Example 65, 4-[(3-methoxy-4-{5-[(morpholin-4-yl)methyl]-1,2,4-oxadiazol-3-yl}pyridin-2-yl)amino]-N—(^2H3)methyl-6-propanamidopyridazine-3-carboxamide]	6.92
[2H]C([2H])([2H])NC(=O)c1cnc(NC(=O)CC)cc1Nc1nccc(-c2noc(C)n2)c1OC [Example 43, 4-{[3-methoxy-4-(5-methyl-1,2,4-oxadiazol-3-yl)pyridin-2-yl]amino}-N—(^2H3)methy-6-propanamidopyridine-3-carboxamide]	6.92
[2H]C([2H])([2H])NC(=O)c1nnc(NC(=O)CC2COC2)cc1Nc1nccc(-c2noc(COC)n2)c1OC [Example 76, 4-({3-methoxy-4-[5-(methoxymethyl)-1,2,4-oxadiazol-3-yl]pyridin-2-yl}amino)-N—(^2H3)methyl-6-[2-(oxetan-3-yl)acetamido]pyridazine-3-carboxamide]	6.74
[2H]C([2H])([2H])NC(=O)c1nnc(Nc2ccc(N3CCN(C(C)(C)C)C3=O)cn2)cc1Nc1nccc(-c2ncn(C)n2)c1OC [Example 37, 6-{[5-(3-tert-butyl-2-oxoimidazolidin-1-yl)pyridin-2-yl]amino}-4-{[3-methoxy-4-(1-methyl-1H-1,2,4-triazol-3-yl)pyridin-2-yl]amino}-N—(^2H3)methylpyridazine-3-carboxamide]	6.89
[2H]C([2H])([2H])NC(=O)c1cnc(NC(=O)C2CC2)cc1Nc1nccc(-c2ccc(Cl)cn2)c1OC [Example 86, 4-((5-Chloro-3′-methoxy-[2,4′-bipyridin]-2′-yl)amino)-6-(cyclopropanecarboxamido)-N-(methyl-d3)nicotinamide]	6.32

More lines, now with the values ahead:

pIC50	SMILES
6.96	[2H]C([2H])([2H])NC(=O)c1nnc(NC(=O)OC)cc1Nc1nccc(-c2noc(CN(C)S(C)(=O)=O)n2)c1OC [Example 52, methyl N-{5-[(3-methoxy-4-{5-[(N-methylmethanesulfonamido)methyl]-1,2,4-oxadiazol-3-yl}pyridin-2-yl)amino]-6-[(^2H3)methylcarbamoyl]pyridazin-3-yl}carbamate]
7.05	[2H]C([2H])([2H])NC(=O)c1cnc(NC(=O)CC)cc1Nc1nccc(-c2nnn(C)n2)c1OC [Example 105, 4-{[3-methoxy-4-(2-methyl-2H-1,2,3,4-tetrazol-5-yl)pyridin-2-yl]amino}-N—(^2H3)methyl-6-propanamidopyridine-3-carboxamide]
7.05	[2H]C([2H])([2H])NC(=O)c1nnc(NC(=O)OC)cc1Nc1nccc(-c2noc(CN3CCCCS3(=O)=O)n2)c1OC [Example 64, methyl N-{5-[(4-{5-[(1,1-dioxo-1λ^6,2-thiazinan-2-yl)methyl]-1,2,4-oxadiazol-3-yl}-3-methoxypyridin-2-yl)amino]-6-[(^2H3)methylcarbamoyl]pyridazin-3-yl}carbamate]
7.05	[2H]C([2H])([2H])NC(=O)c1nnc(Nc2cc(C(F)(F)F)ccn2)cc1Nc1nccc(-c2ncn(C)n2)c1OC [Example 32, 4-{[3-methoxy-4-(1-methyl-1H-1,2,4-triazol-3-yl)pyridin-2-yl]amino}-N—(^2H3)methyl-6-{[4-(trifluoromethyl)pyridin-2-yl]amino}pyridazine-3-carboxamide]
7.15	[2H]C([2H])([2H])NC(=O)c1nnc(NC(=O)CC2CC2)cc1Nc1nccc(-c2noc(CN(C)S(C)(=O)=O)n2)c1OC [Example 67, 6-(2-cyclopropylacetamido)-4-[(3-methoxy-4-{5-[(N-methylmethanesulfonamido)methyl]-1,2,4-oxadiazol-3-yl}pyridin-2-yl)amino]-N—(^2H3)methylpyridazine-3-carboxamide]
7.15	[2H]C([2H])([2H])NC(=O)c1cnc(Nc2cc(C#N)ccn2)cc1Nc1nccc(-c2nnn(C)n2)c1OC [Example 106, 6-[(4-cyanopyridin-2-yl)amino]-4-{[3-methoxy-4-(2-methyl-2H-1,2,3,4-tetrazol-5-yl)pyridin-2-yl]amino}-N—(^2H3)methylpyridine-3-carboxamide]
7.22	[2H]C([2H])([2H])NC(=O)c1nnc(NC(=O)C2CC2)cc1Nc1nccc(-c2noc(CN(C)C)n2)c1OC [Example 58, 6-cyclopropaneamido-4-[(4-{5-[(dimethylamino)methyl]-1,2,4-oxadiazol-3-yl}-3-methoxypyridin-2-yl)amino]-N—(^2H3)methylpyridazine-3-carboxamide]
7.22	[2H]C([2H])([2H])NC(=O)c1nnc(NC(=O)C2CC2)cc1Nc1nccc(-c2noc([C@H](C)O)n2)c1OC [Example 57, 6-cyclopropaneamido-4-[(4-{5-[(1S)-1-hydroxyethyl]-1,2,4-oxadiazol-3-yl}-3-methoxypyridin-2-yl)amino]-N—(^2H3)methylpyridazine-3-carboxamide]
7.30	[2H]C([2H])([2H])NC(=O)c1nnc(Nc2cc(C(C)(C)O)ccn2)cc1Nc1nccc(-c2ncn(C)n2)c1OC [Example 25, 6-{[4-(2-hydroxypropan-2-yl)pyridin-2-yl]amino}-4-{[3-methoxy-4-(1-methyl-1H-1,2,4-triazol-3-yl)pyridin-2-yl]amino}-N—(^2H3)methylpyridazine-3-carboxamide]
7.52	[2H]C([2H])([2H])NC(=O)c1cnc(NC(=O)C2CC2)cc1Nc1nccc(-c2noc(COCC)n2)c1OC [Example 46, 6-cyclopropaneamido-4-({4-[5-(ethoxymethyl)-1,2,4-oxadiazol-3-yl]-3-methoxypyridin-2-yl}amino)-N—(^2H3)methylpyridine-3-carboxamide]
7.52	[2H]C([2H])([2H])NC(=O)c1nnc(NC(=O)C2CC2)cc1Nc1nccc(-c2cnc(C(=O)N(C)C)cn2)c1OC [Example 87, 6-(Cyclopropanecarboxamido)-4-((4-(5-(dimethylcarbamoyl)pyrazin-2-yl)-3-methoxypyridin-2-yl)amino)-N-(methyl-d3)pyridazine-3-carboxamide]
7.52	[2H]C([2H])([2H])NC(=O)c1nnc(Nc2cc(F)ccn2)cc1Nc1nccc(-c2ncn(C)n2)c1OC [Example 19, 6-[(4-fluoropyridin-2-yl)amino]-4-{[3-methoxy-4-(1-methyl-1H-1,2,4-triazol-3-yl)pyridin-2-yl]amino}-N—(^2H3)methylpyridazine-3-carboxamide]
7.70	[2H]C([2H])([2H])NC(=O)c1nnc(Nc2ccc(C(C)(C)O)cn2)cc1Nc1nccc(-c2ncn(C)n2)c1OC [Example 33, 6-{[5-(2-hydroxypropan-2-yl)pyridin-2-yl]amino}-4-{[3-methoxy-4-(1-methyl-1H-1,2,4-triazol-3-yl)pyridin-2-yl]amino}-N—(^2H3)methylpyridazine-3-carboxamide]

Reference: patent US11597721B2, “Heterocyclic compounds comprising pyridine useful as modulators of IL-12, IL-23 and/or IFNα responses” (BRISTOL-MYERS SQUIBB COMPANY, priority 2018, dated 2023)
